This is an account of results in patent publication US20110105457A1, “HETEROCYCLIC COMPOUND HAVING INHIBITORY ACTIVITY ON PI3K” (SHIONOGI & CO., LTD., priority 2008, published 2011).

Data set [1] concerns the target T1, PI-3 kinase γ (Homo sapiens, UniProt P48736). In words: PI3Kγ inhibitory activity, PI3-kinase HTRF assay (Millipore). Type of data set: biochemical. To be noted: 0.5 h; compound 50 μM; read-out: Inhibition ratio % (50 μM). In outline: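 HTRF assay: PI3Kγ preincubated 10 min with compound and PIP2 substrate in MgCl2/DTT buffer, then reaction started with ATP and run 30 min at room temperature before EDTA/biotin-PIP3 quench. Read after 18 h with Eu anti-GST/GST-PH domain/APC-streptavidin as 665/620 nm ratio; inhibition relative to no-compound (100%) and no-enzyme (0%) wells.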
Background: Time-resolved FRET reads energy transfer from a long-lived donor to a nearby acceptor.

In data set [2] the target is T1, PI-3 kinase γ. In words: PI3Kγ inhibitory activity (Ki value), HTRF assay. To be noted: calculated from IC50, test ATP 10 μM. Type of data set: biochemical. How it is done: The PI3Kγ inhibitory activity (Ki value) of a compound was evaluated according to the following procedure.
5 μL of a compound solution comprising 10% DMSO and 200 μM of a compound was changed to 5 μL of a compound solution comprising 10% DMSO and 200, 64, 20, 6.4, 2, 0.64, or 0.20 μM of the compound (optionally, this is diluted to a lower concentration). By a method similar to the method for measuring PI3Kγ inhibitory activity, inhibition ratios were measured in the presence of the compound of 50, 16, 5, 1.6, 0.5, 0.16, and 0.05 μM (optionally, a lower concentration), and then an IC50 value was calculated by a logistic approximation method, or the linear regression method using two concentrations that across 50% inhibition. Separately, 5 μL of 40 μM ATP/10 mM MgCl2/5 mM DTT at the time of the start of a reaction in the absence of a compound was changed to 5 μL of 80, 40, 20, 10, 5, 2.5, 1.25, or 0.625 μM ATP/10 mM MgCl2/5 mM DTT, and then ratios of HTRF was measured by a similar method. The value of subtracting an HTRF ratio at each ATP concentration from an HTRF ratio in the absence of PI-3 kinase γ was defined as a value of multiplying reaction rate v by a constant to calculate the Michaelis-Menten constant Km by the Lineweaver-Burk plot method. A Ki value of a compound was calculated by the following formula.

Data set [3] in a line: Solubility test. Type of data set: physicochemical. To be noted: 25 °C, fassgf or other biorelevant, kinetic from dmso stock, artificial intestinal juice pH 6.8, 1% DMSO, 25 degrees Celsius. As for the experimental part: 10 mM compound solution was prepared using DMSO, and then 6 μL of the compound solution was added to 594 μL of artificial intestinal juice in pH 6.8 (to 250 mL of 0.2 mol/L potassium dihydrogen phosphate reagent solution was added 118 mL of 0.2 mol/L NaOH reagent solution and water to provide a final volume of 1000 mL). After standing at 25 degrees Celsius for 16 hours, the mixed solution was filtrated with suction. The filtrate was diluted twice with methanol/water (1/1), and then a concentration in the filtration was measured with HPLC or LC/MS/MS by the absolute calibration method.

Data set [4] has as its target T2, CYP1A2 (Homo sapiens, UniProt P05177).
T2 construct: Using a pooled human liver microsome commercially available; from tissue; host or cells: pooled human liver microsomes
T2 sequence (P05177 1-516): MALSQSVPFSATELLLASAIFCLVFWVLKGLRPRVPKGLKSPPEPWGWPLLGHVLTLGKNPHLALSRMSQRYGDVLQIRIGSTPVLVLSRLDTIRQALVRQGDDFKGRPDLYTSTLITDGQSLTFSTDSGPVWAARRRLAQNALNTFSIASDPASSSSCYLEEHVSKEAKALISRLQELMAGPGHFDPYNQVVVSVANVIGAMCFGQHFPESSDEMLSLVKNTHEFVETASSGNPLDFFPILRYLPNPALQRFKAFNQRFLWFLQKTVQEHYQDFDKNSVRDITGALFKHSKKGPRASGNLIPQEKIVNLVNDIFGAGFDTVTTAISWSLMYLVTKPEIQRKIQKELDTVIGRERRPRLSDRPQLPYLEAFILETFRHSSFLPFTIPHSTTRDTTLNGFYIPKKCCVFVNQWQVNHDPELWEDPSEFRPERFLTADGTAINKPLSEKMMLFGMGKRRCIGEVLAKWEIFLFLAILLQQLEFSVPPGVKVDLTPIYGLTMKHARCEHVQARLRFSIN
In words: CYP inhibition test, pooled human liver microsome, O-de-ethylation of 7-ethoxyresorufin. Type of data set: in vitro ADME. As for the experimental part: (§1) Using a pooled human liver microsome commercially available, and selecting as indexes O-de-ethylation of 7-ethoxyresorufin (CYP1A2), methyl-hydroxylation of tolbutamide (CYP2C9), 4′-hydroxylation of mephenyloin (CYP2C19), O-demethylation of dextromethorphan (CYP2D6), and hydroxylation of terfenadine (CYP3A4), which are typical substrate metabolic reactions of human main CYP5 molecular species (CYP1A2, 2C9, 2C19, 2D6, and 3A4), it was evaluated in what degree the amount of each metabolite produced was inhibited by a test compound.
(§2) The reaction condition is as follows: substrate, 0.5 μmol/L of ethoxyresorufin (CYP1A2), 100 μmol/L of tolbutamide (CYP2C9), 50 μmol/L of S-mephenyloin (CYP2C19), 5 μmol/L of dextromethorphan (CYP2D6), and 1 μmol/L of terfenadine (CYP3A4); reaction time, 15 minutes; reaction temperature, 37 degrees Celsius; enzyme, pooled human liver microsome 0.2 mg protein/mL; test drug concentration, 1, 5, 10, and 20 μmol/L (4 points).
(§3) To a 96-well plate was added five kinds of substrates, a human liver microsome, and a test drug in 50 mM Hepes buffer solution as a reaction solution in the aforementioned constitution. A coenzyme NADPH was added to start a metabolic reaction, which is an index. After reacting at 37 degrees Celsius for 15 minutes, a solution of methanol/acetonitrile (1/1 (v/v)) was added to quench the reaction. After centrifugation at 3000 rpm for 15 minutes, resorufine (CYP1A2 metabolite) in the supernatant was quantitated with a fluorescence multilabel counter, and hydroxylated tolbutamide (CYP2C9 metabolite), 4′-hydroxylated mephenyloin (CYP2C19 metabolite), […] (CYP2D6 metabolite), terfenadine in alcohol form (CYP3A4 metabolite) were quantitated with LC/MS/MS.
(§4) The case that only DMSO, a solvent which dissolved a drug, was added to a reaction system was defined as a control (100%). The remaining activity (%) at each concentration in cases that a test drug solution was added was calculated, and then IC50 was calculated with a concentration and an inhibition ratio by an inverse estimation using a logistic model.
(Liver microsomes are a subcellular fraction often used to study metabolism.)

Data set [5] concerns the target T3, CYP2C9 (Homo sapiens, UniProt P11712).
T3 construct: Using a pooled human liver microsome commercially available; from tissue; host or cells: pooled human liver microsomes
In words: CYP inhibition test, pooled human liver microsome, methyl-hydroxylation of tolbutamide. Type of data set: in vitro ADME. As for the experimental part:
as §1, §2, §3, §4

Data set [6] addresses T4, CYP2C19 (Homo sapiens, UniProt P33261).
T4 construct: Using a pooled human liver microsome commercially available; from tissue; host or cells: pooled human liver microsomes
In words: CYP inhibition test, pooled human liver microsome, 4′-hydroxylation of mephenyloin. Type of data set: in vitro ADME. The conditions noted are these: S-mephenyloin. As for the experimental part: as §1, §2, §3, §4

The target of data set [7] is T5, CYP2D6 (Homo sapiens, UniProt P10635).
T5 construct: Using a pooled human liver microsome commercially available; from tissue; host or cells: pooled human liver microsomes
T5 sequence (P10635 whole entry): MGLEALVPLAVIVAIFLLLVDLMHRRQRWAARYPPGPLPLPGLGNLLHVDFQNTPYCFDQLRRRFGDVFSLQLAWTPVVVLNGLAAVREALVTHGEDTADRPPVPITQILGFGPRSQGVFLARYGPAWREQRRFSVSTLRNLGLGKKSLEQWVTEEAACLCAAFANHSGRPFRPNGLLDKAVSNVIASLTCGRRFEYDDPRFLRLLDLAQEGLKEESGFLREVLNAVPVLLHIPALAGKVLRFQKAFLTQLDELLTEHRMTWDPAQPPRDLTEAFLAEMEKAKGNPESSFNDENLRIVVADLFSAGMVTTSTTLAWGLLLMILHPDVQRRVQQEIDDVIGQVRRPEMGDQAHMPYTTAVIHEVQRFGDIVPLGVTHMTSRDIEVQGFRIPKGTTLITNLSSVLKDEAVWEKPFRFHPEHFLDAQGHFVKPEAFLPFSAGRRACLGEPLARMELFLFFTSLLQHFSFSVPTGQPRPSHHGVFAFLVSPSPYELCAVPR
In words: CYP inhibition test, pooled human liver microsome, O-demethylation of dextromethorphan. Type of data set: in vitro ADME. As for the experimental part:
as §1, §2, §3, §4

The target of data set [8] is T6, CYP3A4 (Homo sapiens, UniProt P08684).
T6 construct: Using a pooled human liver microsome commercially available; from tissue; host or cells: pooled human liver microsomes
T6 sequence (P08684 whole entry): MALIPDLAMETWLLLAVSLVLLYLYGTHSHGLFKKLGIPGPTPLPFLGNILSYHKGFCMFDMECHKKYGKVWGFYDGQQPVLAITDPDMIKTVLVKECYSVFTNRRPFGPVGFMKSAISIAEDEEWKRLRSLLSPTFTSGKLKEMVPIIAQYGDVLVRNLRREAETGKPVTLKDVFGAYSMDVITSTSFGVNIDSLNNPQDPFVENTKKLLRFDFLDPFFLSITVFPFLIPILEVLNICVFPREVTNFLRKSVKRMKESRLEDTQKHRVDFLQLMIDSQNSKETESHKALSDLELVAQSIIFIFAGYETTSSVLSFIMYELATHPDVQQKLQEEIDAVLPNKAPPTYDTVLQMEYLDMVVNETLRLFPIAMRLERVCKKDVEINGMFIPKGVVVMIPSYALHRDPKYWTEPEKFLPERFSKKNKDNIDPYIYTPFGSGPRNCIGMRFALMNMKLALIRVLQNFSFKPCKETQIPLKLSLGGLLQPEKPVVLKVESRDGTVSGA
Put plainly: CYP inhibition test, pooled human liver microsome, hydroxylation of terfenadine. Type of data set: in vitro ADME. How it is done:
as §1, §2, §3, §4

T4 sequence (P33261 whole entry): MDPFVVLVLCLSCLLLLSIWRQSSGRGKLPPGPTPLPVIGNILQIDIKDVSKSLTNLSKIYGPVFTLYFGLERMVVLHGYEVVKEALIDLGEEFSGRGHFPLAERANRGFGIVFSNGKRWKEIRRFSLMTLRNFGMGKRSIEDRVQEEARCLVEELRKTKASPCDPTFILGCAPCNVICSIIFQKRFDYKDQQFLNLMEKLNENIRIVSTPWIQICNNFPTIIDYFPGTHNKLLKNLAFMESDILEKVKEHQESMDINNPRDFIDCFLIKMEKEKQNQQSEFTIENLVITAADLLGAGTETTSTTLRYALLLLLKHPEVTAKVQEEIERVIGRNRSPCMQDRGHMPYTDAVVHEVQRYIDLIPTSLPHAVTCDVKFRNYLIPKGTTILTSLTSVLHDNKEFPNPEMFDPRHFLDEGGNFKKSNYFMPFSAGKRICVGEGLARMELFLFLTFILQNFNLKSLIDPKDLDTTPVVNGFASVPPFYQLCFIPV
T1 sequence (P48736 whole entry, the tested form may be a part): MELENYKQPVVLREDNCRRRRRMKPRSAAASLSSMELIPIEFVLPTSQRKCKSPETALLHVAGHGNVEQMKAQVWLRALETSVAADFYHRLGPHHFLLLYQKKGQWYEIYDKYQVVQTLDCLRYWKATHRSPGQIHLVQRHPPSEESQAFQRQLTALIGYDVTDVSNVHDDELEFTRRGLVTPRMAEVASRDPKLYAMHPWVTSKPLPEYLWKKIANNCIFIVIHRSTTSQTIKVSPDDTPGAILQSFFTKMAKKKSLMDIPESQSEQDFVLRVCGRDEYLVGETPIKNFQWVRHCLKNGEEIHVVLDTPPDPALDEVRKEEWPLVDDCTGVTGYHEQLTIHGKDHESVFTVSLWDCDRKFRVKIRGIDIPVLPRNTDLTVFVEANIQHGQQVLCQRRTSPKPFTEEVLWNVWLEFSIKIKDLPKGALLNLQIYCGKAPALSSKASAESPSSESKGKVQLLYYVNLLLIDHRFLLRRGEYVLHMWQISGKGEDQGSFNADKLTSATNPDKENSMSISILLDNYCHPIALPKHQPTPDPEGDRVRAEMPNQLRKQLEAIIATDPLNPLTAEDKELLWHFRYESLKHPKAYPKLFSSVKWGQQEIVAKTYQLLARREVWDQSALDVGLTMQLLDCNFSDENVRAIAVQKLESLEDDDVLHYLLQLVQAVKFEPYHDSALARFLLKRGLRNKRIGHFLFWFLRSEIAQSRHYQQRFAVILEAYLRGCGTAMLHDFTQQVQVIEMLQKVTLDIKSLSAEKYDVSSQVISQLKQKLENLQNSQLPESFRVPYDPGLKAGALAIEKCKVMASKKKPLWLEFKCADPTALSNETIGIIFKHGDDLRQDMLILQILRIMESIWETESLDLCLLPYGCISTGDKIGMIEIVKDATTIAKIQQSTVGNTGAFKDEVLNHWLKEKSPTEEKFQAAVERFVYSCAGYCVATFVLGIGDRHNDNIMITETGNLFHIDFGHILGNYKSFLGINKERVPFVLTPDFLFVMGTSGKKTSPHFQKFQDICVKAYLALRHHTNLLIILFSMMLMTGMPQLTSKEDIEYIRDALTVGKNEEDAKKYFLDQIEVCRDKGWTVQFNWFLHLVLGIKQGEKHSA
T3 sequence (P11712 whole entry): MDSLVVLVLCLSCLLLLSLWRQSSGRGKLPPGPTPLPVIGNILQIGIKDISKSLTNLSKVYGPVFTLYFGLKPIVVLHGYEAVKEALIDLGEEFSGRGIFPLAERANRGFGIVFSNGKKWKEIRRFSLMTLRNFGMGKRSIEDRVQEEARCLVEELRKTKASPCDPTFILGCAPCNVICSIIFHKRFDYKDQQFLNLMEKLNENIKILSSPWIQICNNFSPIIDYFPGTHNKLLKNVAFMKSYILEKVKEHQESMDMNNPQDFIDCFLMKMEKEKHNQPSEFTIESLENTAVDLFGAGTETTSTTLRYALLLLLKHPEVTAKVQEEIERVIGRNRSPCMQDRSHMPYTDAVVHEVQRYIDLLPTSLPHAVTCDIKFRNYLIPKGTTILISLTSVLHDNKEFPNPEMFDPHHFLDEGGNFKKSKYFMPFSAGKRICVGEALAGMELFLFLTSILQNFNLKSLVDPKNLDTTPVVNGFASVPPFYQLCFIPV

What is called Ki is a dissociation constant, usually derived from enzyme kinetics or from competition with a known ligand. The term solubility denotes the dissolved amount per volume that the medium holds. High values mean a readily soluble substance, low ones a poorly soluble substance. Regarding `COc1cccc(-c2ccc3nc(NC(=O)NCC(=O)O)cn3n2)c1` [Compound I-120], in data set [1], the inhibition at 50 µM worked out at 85%. Also, in data set [2], the inhibition constant (Ki) was 0.046 µM. This molecule displayed a solubility at 16 h in data set [3] of over 50 µM.
As to `CNC(=O)Nc1cn2nc(-c3cncc(OC)c3)ccc2n1` [Compound I-144], in data set [1], the inhibition at 50 µM was 83%. Further, the Ki in data set [2] is 0.052 µM. The molecule further registered a solubility at 16 h in data set [3] of over 50 µM.
One may read the IC50 as the concentration that inhibits the measured activity by half. Read a high IC50 as a need for much substance. Regarding `COc1cncc(-c2ccc3nc(NC(=O)NCC(=O)O)cn3n2)c1` [Compound I-224], the inhibition at 50 µM in data set [1] came to 89%. Moreover, the inhibition constant (Ki) in data set [2] was 0.074 µM. The IC50 in data set [4], in data set [5], in data set [6], in data set [7] and in data set [8] was over 20 µM in each case. Besides, the solubility at 16 h in data set [3] is over 50 µM.
Consider `COc1cccc(-c2ccc3nc(NC(=O)NCCC(=O)O)cn3n2)c1` [Compound I-260], for which the inhibition at 50 µM in data set [1] came out at 73%. Also, the concentration for half-maximal inhibition (IC50) in data set [4], in data set [5], in data set [6], in data set [7] and in data set [8] was over 20 µM each time.
`COc1cccc(-c2ccc3nc(NC(=O)NCc4cc(=O)[nH]o4)cn3n2)c1` [Compound I-267]: the inhibition at 50 µM in data set [1] came out at 61%. The IC50 in data set [4], in data set [5], in data set [6], in data set [7] and in data set [8] was over 20 µM each time.
`COc1cccc(-c2ccc3nc(NC(=O)NCc4nn[nH]n4)cn3n2)c1` [Compound I-292]: the inhibition at 50 µM in data set [1] is 74%. Also, the IC50 in data set [4], in data set [5], in data set [6], in data set [7] and in data set [8] was over 20 µM throughout. The molecule further gave a solubility at 16 h in data set [3] of over 50 µM.
